Reference: paper PMC10914731, “Homo-BacPROTAC-induced degradation of ClpC1 as a strategy against drug-resistant mycobacteria” (Nature Communications, 2024)
Converted amounts (≈) assume the structure as drawn. “And” between values parts separate entries of the source, which are not always exact repeats. Equal entries are not always repeated. Where two headings read alike, the source gives them in different places. *1 amine or outer side, *2 acyl side, *3 side chain or, on linkers, in order; H or OH if unused. Where a SMILES comes first, the peptide text is derived from it. [ ]: non-standard residue; d: D form. X7 = C=CCn1cc(C[C@H](N[*:1])C(=O)[*:2])c2ccccc21; NMeLeu(5-OH,4R) = CN[C@@H](C[C@@H](C)CO)C(=O)O; Phe(βR-OMe) = CO[C@H](c1ccccc1)[C@H](N)C(=O)O; NMeL = CN[C@@H](CC(C)C)C(=O)O

Experiments:
Mtb # 8673 = assay: microbe, parasite or virus in culture; assay type: cell-based
Mtb # 11291 = assay: microbe, parasite or virus in culture; assay type: cell-based; conditions: for MIC: read-out: MIC Mtb # 11291
Mtb ATCC 35825 = assay: microbe, parasite or virus in culture; assay type: cell-based
[1] = assay type: in vitro ADME, Human
Procedure: (§1) Cryopreserved hepatocytes are incubated in an appropriate buffer system containing 50% species serum. Following an acclimation period (15–30 min) in an incubator (37 °C, 5−10% CO2, 85–95% humidity) the test compound is added to the hepatocyte suspension (pH 7.4, typical cell density of about 1 million cells/mL; final concentration of test compound is 1 µM, final DMSO concentration <0.05% v/v). The cells are incubated for up to 6 h and samples are taken at 6 different time points. Samples are then quenched with acetonitrile and pelleted by centrifugation. The remaining amount of parent compound in the supernatants is then analysed by HPLC-MS/MS. Clearance is calculated from compound half-lives using the well-stirred liver model and is converted to clearance stated as % of the liver blood flow (% Qh).

[2] = Hepatocyte stability, mice; assay type: in vitro ADME
Procedure: as §1

[3] = Microsomal stability, human; assay type: in vitro ADME
Procedure: (§2) The kinetics of compound degradation in liver microsomes is assessed in an assay with 1 µmol/l of compound and 0.5 mg/ml liver microsomes in a medium of 100 mM Tris-HCl pH 7.5, 6.5 mM MgCl2 and 1 mM NADPH at 37 °C. The reaction is stopped at multiple time points by adding acetonitrile. After centrifugation, the compound concentration is measured in the supernatants by high-performance liquid chromatography (HPLC) tandem mass spectrometry (MS/MS). The results are fitted to a first-order decay and the half-lives are converted to clearance (stated as % of the liver blood flow (%Qh)) using the well-stirred liver model.

in vitro = conditions: human
Text: (§3) Supplementary Table 1. Structure-Activity Relationships part 1 (SPR, Caco-2) […]
(§4) SPR. Mean values ± standard deviation. Footnotes indicate the number of measurements performed for the respective compound: a) n = […]
(§5) [5] Permeability across Caco-2 monolayers in P(A−B): apical to basolateral and P(B−A): basolateral to apical direction (values reported in 10-
(§6) 6 cm s-1); efflux ratio = P(B−A)/P(A−B); Int. perm: mean value of P(A−B) and P(B−A). […] Influence of Trp-Nα methylation on P(A-B) and efflux
(§7) ratio. Bold: positive influence.

Caco-2 monolayers = assay: in vitro
Text: as §3, §4, §5, §6, §7

[4] = assay type: in vitro ADME, Rat
Procedure: as §1

[5] = molecular target: ClpC1 NTD protein (M. tuberculosis) (Mycobacterium tuberculosis, UniProt P9WPC9); assay: biochemical; assay type: binding
[6] = assay type: in vitro ADME, Rat; remark: listed apart in the source
Procedure: as §2

[7] = assay type: in vitro ADME, Mice
Procedure: as §2

Mycobacterium avium = assay: microbe, parasite or virus in culture; assay type: cell-based
Mycobacterium fortuitum = assay: microbe, parasite or virus in culture; assay type: cell-based
[8] = tested on: Mycobacterium intracellulare; assay: microbe, parasite or virus in culture; assay type: cell-based
Mycobacterium abscessus = assay: microbe, parasite or virus in culture; assay type: cell-based
[9] = Mycobacterium tuberculosis, mean, n = 2 well replicates
[10] = Mycobacterium tuberculosis, single well replicates
[11] = Mycobacterium tuberculosis, ATCC35825, mean, n = 2 well replicates
[12] = Mycobacterium tuberculosis, ATCC35825, single well replicates
[13] = Experiment 2, three replicate columns

Sequence of ClpC1 NTD protein (M. tuberculosis) (P9WPC9 1-156, looked up, natural form): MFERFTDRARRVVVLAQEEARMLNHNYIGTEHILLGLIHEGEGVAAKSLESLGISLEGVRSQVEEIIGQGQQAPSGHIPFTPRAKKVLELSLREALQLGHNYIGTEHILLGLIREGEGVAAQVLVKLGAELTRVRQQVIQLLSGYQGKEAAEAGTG

For `CC(=O)Nc1ccc(/C=N/NC(N)=S)cc1` [Thiacetazone], the MIC (Mtb # 8673; [9]) was > 542 µM and > 128 µg/mL, the MIC (Mtb # 8673; [10]) was > 542 µM and > 128 µg/mL and the MIC (Mtb # 8673; single well replicates) was over 541.68 µM. The “MIC Mtb # 8673” value (Mtb # 8673; single well replicates) was over 128 µg/mL, the MIC (Mtb # 11291; [9]) was 4.2 µM and 1 µg/mL and the MIC (Mtb # 11291; [10]) was 4.23 µM and 1 µg/mL. The “MIC Mtb # 11291” value (Mtb # 11291; single well replicates) was 1 µg/mL (≈ 4.23 µM), the MIC (Mtb # 11291; single well replicates) was 4.23 µM (≈ 1 µg/mL) and the MIC (Mtb ATCC 35825; [11]) was 4.2 µM and 1 µg/mL. For the same molecule, the MIC (Mtb ATCC 35825; [12]) was 1 µg/mL and 4.23 µM, the MIC (Mtb ATCC 35825; single well replicates) was 4.23 µM (≈ 1 µg/mL) and the “MIC Mtb ATCC 35825” value (Mtb ATCC 35825; single well replicates) was 1 µg/mL (≈ 4.23 µM).

With `C=CCn1cc(C[C@@H]2NC(=O)[C@H](C(C)C)NC(=O)[C@H](CC(C)C)N(C)C(=O)[C@H](C(C)C)NC(=O)[C@H]([C@H](OC)c3ccccc3)NC(=O)[C@H](C)NC(=O)[C@H](C[C@@H](C)CO)N(C)C2=O)c2ccccc21` [Compound 13] (cyclo(A[Phe(βR-OMe)]V[NMeL]V[X7][NMeLeu(5-OH,4R)])) the “Hepatocyte Stability Human QH” value ([1]; Human) was 18.968%, the “Hepatocyte Human” value ([1]; clearance in hepatocytes) was 19 %Qh and the “Hepatocyte Stability Mouse QH” value ([2]; Mouse) was 58.852%. For the same molecule, the “Hepatocyte Mice” value ([2]; clearance in hepatocytes) was 59 %Qh, the “Microsomal Stability Human QH” value ([3]; Human) was over 88.400% and the “Microsomal Stability Human” value ([3]; clearance in microsomes) was over 88 %Qh. For the same molecule, the efflux ratio (in vitro; Caco-2) was 7.9, the Papp A→B (in vitro; Caco-2, CACO permeability PEAB, apical to basolateral) was 4.5 ×10⁻⁶ cm/s and the Papp B→A (in vitro; Caco-2, CACO permeability PEBA, basolateral to apical) was 33 ×10⁻⁶ cm/s. For the same molecule, the “CACO permeability PEAB” value (Caco-2 monolayers; apical to basolateral) was 2.4 ×10⁻⁶ cm/s, the “CACO permeability PEBA” value (Caco-2 monolayers; basolateral to apical) was 18.999999999999998 ×10⁻⁶ cm/s and the “Caco-2 Int. Perm” value (Caco-2 monolayers; mean value of P(A−B) and P(B−A)) was 10.7 10-6 cm s-1. For the same molecule, the “Hepatocyte Stability Rat QH” value ([4]; Rat) was 65.282%, the “Hepatocyte Rat” value ([4]; clearance in hepatocytes) was 65 %Qh and the Kd ([5]; SPR (Supplementary Table 1), read-out: KD ClpC1-NTD Mean ± SD) was 3.6 ± 0.2 nM. For the same molecule, the “koff ClpC1-NTD” value ([5]; SPR, single independent measurements) was 0.1 s⁻¹, the Kd ([5]; SPR, single independent measurements, read-out: KD ClpC1-NTD) was 3.66 nM and 3.44 nM and the koff ([5]; SPR, single independent measurements, read-out: koff ClpC1-NTD) was 0.07 s⁻¹. The “Microsomal Stability Rat QH” value ([6]; Rat) was over 87.900%, the “Microsomal Stability Rat” value ([6]; clearance in microsomes) was over 88 %Qh and the “Microsomal Stability Mouse QH” value ([7]; Mouse) was over 88.400%. The “Microsomal Stability Mice” value ([7]; clearance in microsomes) was over 88 %Qh.

For `CC[C@H]1OC(=O)[C@H](C)[C@@H](O[C@H]2C[C@@](C)(OC)[C@@H](O)[C@H](C)O2)[C@H](C)[C@@H](O[C@@H]2O[C@H](C)C[C@H](N(C)C)[C@H]2O)[C@](C)(OC)C[C@@H](C)C(=O)[C@H](C)[C@@H](O)[C@]1(C)O` [Clarithromycin, reference compound], the “MIC (µg/ml) Mycobacterium avium” value (Mycobacterium avium; [13]) was 0.25 µg/mL (≈ 0.334 µM), the MIC (Mycobacterium avium; Experiment 2, three replicate columns, read-out: MIC (µM) Mycobacterium avium) was 0.33 µM and the MIC (Mycobacterium avium; Mycobacterium avium, Experiment 2, three replicate columns, read-out: MIC (µM) Mycobacterium avium) was 0.33 µM. For the same molecule, the MIC (Mycobacterium avium; Mycobacterium avium, Experiment 2, three replicate columns, read-out: MIC (µg/ml) Mycobacterium avium) was 0.25 µg/mL, the MIC (Mycobacterium avium; Mycobacterium avium, mean ± SD, read-out: MIC Mycobacterium avium) was 0.3 µM and the “MIC (µg/ml) Mycobacterium fortuitum” value (Mycobacterium fortuitum; [13]) was 0.50 µg/mL (≈ 0.668 µM). The MIC (Mycobacterium fortuitum; Experiment 2, three replicate columns, read-out: MIC (µM) Mycobacterium fortuitum) was 0.67 µM, the MIC (Mycobacterium fortuitum; Mycolicibacterium fortuitum, Experiment 2, three replicate columns, read-out: MIC (µM) Mycobacterium fortuitum) was 0.67 µM and the MIC (Mycobacterium fortuitum; Mycolicibacterium fortuitum, Experiment 2, three replicate columns, read-out: MIC (µg/ml) Mycobacterium fortuitum) was 0.5 µg/mL. The MIC (Mycobacterium fortuitum; Mycolicibacterium fortuitum, mean ± SD, read-out: MIC Mycobacterium fortuitum) was 0.7 µM, the “MIC (µg/ml) Mycobacterium intracellulare” value [8, 13] was 0.13 µg/mL (≈ 0.174 µM) and the MIC ([8]; Experiment 2, three replicate columns, read-out: MIC (µM) Mycobacterium intracellulare) was 0.17 µM. The MIC ([8]; Mycobacterium intracellulare, Experiment 2, three replicate columns, read-out: MIC (µM) Mycobacterium intracellulare) was 0.17 µM, the MIC ([8]; Mycobacterium intracellulare, Experiment 2, three replicate columns, read-out: MIC (µg/ml) Mycobacterium intracellulare) was 0.13 µg/mL and the MIC ([8]; Mycobacterium intracellulare, mean ± SD, read-out: MIC Mycobacterium intracellulare) was 0.2 µM. For the same molecule, the “MIC (µg/ml) Mycobacterium abscessus” value (Mycobacterium abscessus; [13]) was 0.50 µg/mL (≈ 0.668 µM), the MIC (Mycobacterium abscessus; Experiment 2, three replicate columns, read-out: MIC (µM) Mycobacterium abscessus) was 0.67 µM and the MIC (Mycobacterium abscessus; Mycobacteroides abscessus, Experiment 2, three replicate columns, read-out: MIC (µM) Mycobacterium abscessus) was 0.67 µM. The MIC (Mycobacterium abscessus; Mycobacteroides abscessus, Experiment 2, three replicate columns, read-out: MIC (µg/ml) Mycobacterium abscessus) was 0.5 µg/mL and the MIC (Mycobacterium abscessus; Mycobacteroides abscessus, mean ± SD, read-out: MIC Mycobacterium abscessus) was 0.7 µM.

For `Nc1ccc(C(=O)O)c(O)c1` [p-Aminosalicylic acid], the MIC (Mtb # 8673; [9]) was 6.5 µM and 1 µg/mL, the MIC (Mtb # 8673; [10]) was 6.53 µM and 1 µg/mL and the MIC (Mtb # 8673; single well replicates) was 6.53 µM (≈ 1 µg/mL). For the same molecule, the “MIC Mtb # 8673” value (Mtb # 8673; single well replicates) was 1 µg/mL (≈ 6.53 µM), the “MIC Mtb # 11291” value (Mtb # 11291; single well replicates) was 1 µg/mL (≈ 6.53 µM) and the MIC (Mtb # 11291; single well replicates) was 6.53 µM (≈ 1 µg/mL). The MIC (Mtb ATCC 35825; [11]) was 104 µM and 16 µg/mL, the MIC (Mtb ATCC 35825; [12]) was 16 µg/mL and 104 µM and the MIC (Mtb ATCC 35825; single well replicates) was 104.48 µM (≈ 16 µg/mL). For the same molecule, the “MIC Mtb ATCC 35825” value (Mtb ATCC 35825; single well replicates) was 16 µg/mL (≈ 104 µM).
